Values quoted from earlier work as cited in patent US11225464B2, “Compositions and methods for the treatment of gastrointestinal polyps” (CELLIX BIO PRIVATE LIMITED, priority 2016, dated 2022).

Experiments:
duodenal adenomas = conditions: FAP patients
colorectal adenomas = conditions: FAP patients; long-term use; colon as well as rectum of patients after colectomy
[1] = long-term users

| SMILES | effect on duodenal polyposis / number of duodenal adenomas (duodenal adenomas) | reduction of the number of colorectal adenomas (colorectal adenomas) | cardiovascular effects [1] |
| --- | --- | --- | --- |
| CC1=C(CC(=O)O)c2cc(F)ccc2/C1=C\c1ccc([S+](C)[O-])cc1 (stereo not drawn) [sulindac] | not in duodenal polyposis | > 50% | – |
| CS(=O)(=O)c1ccc(C2=C(c3ccccc3)C(=O)OC2)cc1 [rofecoxib] | – | – | cardiovascular effects (myocardial infarction or stroke) have been described |
